In publication PMC12089509, “NorA Efflux Pump Inhibitors: Expanding SAR Knowledge of Pyrazolo[4,3‐c][1,2]benzothiazine 5,5‐Dioxide Derivatives” (Archiv Der Pharmazie, 2025):
Values after ≈ are worked out from the molar mass of the structure shown. Like-named read-outs stand apart in the source and are kept apart here.

Experiments:
[1] = molecular target: T1, S. aureus NorA efflux pump (SA-1199B strain, overexpresses the norA gene) (Staphylococcus aureus, UniProt P0A0J7); experiment: EtBr efflux inhibition assay; assay type: cell-based; settings: for inhibition at 50 µM: read-out: EtBr efflux inhibition (%), compound at 50 µM, SA-1199B
T1 construct: endogenous in cells; host or cells: S. aureus SA-1199B (overexpresses norA; isogenic parent SA-1199)
T1 sequence (P0A0J7 whole entry): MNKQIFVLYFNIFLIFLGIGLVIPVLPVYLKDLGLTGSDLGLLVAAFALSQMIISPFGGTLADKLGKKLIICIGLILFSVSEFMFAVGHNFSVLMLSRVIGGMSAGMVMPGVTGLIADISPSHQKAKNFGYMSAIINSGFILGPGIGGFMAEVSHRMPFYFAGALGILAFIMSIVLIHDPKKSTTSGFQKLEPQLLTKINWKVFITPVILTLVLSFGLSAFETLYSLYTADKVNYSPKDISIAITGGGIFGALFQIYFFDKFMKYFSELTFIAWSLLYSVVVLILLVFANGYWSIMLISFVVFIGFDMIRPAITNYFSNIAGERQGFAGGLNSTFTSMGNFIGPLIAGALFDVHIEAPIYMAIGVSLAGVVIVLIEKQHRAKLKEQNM
Protocol: EtBr efflux inhibition assays were conducted using the S. aureus SA‐1199B strain, which overexpresses the norA gene and has an A116E GrlA substitution. Each compound was tested at 50 µM (see Figure 2). The starting hit compound 1 was used as the internal standard for comparison with the previously reported data.
The cells were grown overnight in cation‐supplemented Mueller–Hinton broth (CAMHB) without any additives at 35°C. The organisms were subsequently diluted into CAMHB to obtain an optical density at 600 nm (OD600) of 0.7–0.8. Subsequently, the cells were pelleted and resuspended at an OD600 of 0.8 in 0.5 mL aliquots of CAMHB containing EtBr and carbonyl cyanide m‐chlorophenylhydrazone (CCCP) to “load” the cells with EtBr (final concentrations of 25 μM for EtBr and 100 μM for CCCP). Following 20 min of incubation at room temperature, the cells were pelleted and resuspended in 1 mL of fresh CAMHB. Immediately thereafter, 200 μL aliquots were transferred into the wells of white 96‐well plates, which either lacked or contained 50 or 10 μM of each test compound. Fluorescence was monitored continuously using a microplate reader (Infinite M200 Pro, TECAN) at excitation and emission wavelengths of 485 and 645 nm, respectively, for a period of 5 min. The experiments were conducted in triplicate, with two technical replicates per biological replicate. The efflux activity of the SA‐1199B strain was expressed as a percentage of fluorescence decrease over a 5‐min time course. The inhibition of this efflux by the test compounds was determined using the following equation: ([efflux in the absence] ‐ [efflux in the presence of test [compound])/[efflux in the absence of test compound] × 100, which yielded the percent efflux inhibition observed.
^a Experiments were performed in triplicate with two technical replicates per biological replicate. Efflux activity of SA-1199B was expressed as percent fluorescence decrease over a 5 min time course. Inhibition of this efflux by test compounds was determined using the equation [efflux in the absence] − [efflux in the presence of test [compound]/[efflux in the absence of test compound] × 100, giving the percent efflux inhibition observed.

[2] = tested on: Staphylococcus aureus SA-1199B; assay type: cell-based
Source text: For purposes of comparison, compound 1 was included as a reference.

[3] = tested on: S. aureus SA-K1902 (norA-); experiment: MIC evaluation against SA-K1902; assay type: cell-based, Staphylococcus aureus; settings: Staphylococcus aureus
Source text: (§1) Conversely, interesting results were obtained against SA‐K2378, which overexpresses the norA gene (Table 2). […] This corroborates the hypothesis that their activity is strictly related to NorA EP inhibition.
(§2) In this study, the S. aureus strains SA‐1199B (overexpressing norA) and its isogenic parent SA‐1199 (wild type), the pair SA‐K1902 (norA‐depleted) and SA‐K2378 (complemented with a pCU1 plasmid harboring the norA promoting and coding region from SA‐1199B), were used to test EPI activity as described in a previous study. Furthermore, the S. aureus ATCC 29213 was used as the reference strain in MIC determination experiments.

[4] = tested on: S. aureus SA-K1902 (norA-); experiment: Checkerboard assay EPI/CPX against SA-K1902; assay type: cell-based, Staphylococcus aureus
Protocol: Checkerboard assays were carried out using SA‐K1902 and SA‐K2378 strains according to standard procedures.

[5] = tested on: S. aureus SA-K2378 (norA ++); experiment: MIC evaluation against SA-K2378; assay type: cell-based, Staphylococcus aureus; settings: Staphylococcus aureus
Source text: as §1, §2

[6] = tested on: Staphylococcus aureus SA-K2378 biofilm; assay type: cell-based; settings: for Biofilm formation (%): CPX 1/4 X MIC + EPI 1,6 µg/ml; for reduction in biofilm formation: EPI at 1.6 µg/mL with CPX at ½ MIC, vs untreated control
Source text: The formation of biofilms is a significant contributor to the development of AMR [1, 26, 27]. This is due to the fact that biofilms provide a protective environment for bacteria, thereby rendering them more resilient to the effects of common antibacterial agents. Over the years, several investigations have been conducted to study the role of EPs in the various stages of microbial biofilm formation. However, a definitive answer regarding the potential role of EPs in this microbial pathway remains elusive. While some studies have reported a negative effect of certain EPs on biofilm formation, others have highlighted the promising role of EPIs in limiting biofilm formation and enhancing the efficacy of antibiotics under biofilm conditions.
The biofilm production by SA‐K1902 and SA‐K2378 strains was analyzed in flat 96‐well microtiter plates as previously described, with some modifications. […] The microplates were incubated at 37°C for 24 h in static conditions. After incubation, the biofilms were washed three times with distilled water, dried at 60°C for 1 h, and stained with 0,1% crystal violet for 10 min. After staining, the crystal violet was removed and the wells were washed three times with water, dried at 37°C for 30 min, and the bound crystal violet was solubilized with 96% ethanol in shaking conditions. At the end of the destaining, the absorbance (570 nm) of the solutions in each well was measured using the FLUOstar Omega plate reader (BMG‐LABTECH, Germany) to quantify the biofilm produced in each condition compared with the control (biofilm produced by the strain without any compound/antibiotic). Biofilm assays were performed in triplicate for each condition.

[7] = MTT cytotoxicity assay on A549; assay type: cell-based; settings: human, A549 cells; for viability at 72 h, 12.5 µg/mL: A549, 12.5 μg/mL; for viability at 72 h, 12.5 µg/mL / viability at 72 h, 25 µg/mL / viability at 72 h, 50 µg/mL / viability at 72 h, 100 µg/mL: read-out: Cytotoxicity (% cell viability); for viability at 72 h, 25 µg/mL: A549, 25 μg/mL; for viability at 72 h, 50 µg/mL: A549, 50 μg/mL; for viability at 72 h, 100 µg/mL: A549, 100 μg/mL
Protocol: (§3) The MTT assay was performed on two human ATCC cell lines, that is, […] (CCL‐185) and MCF7 (HTB‐22), to test the potential cytotoxic effect of the compounds, after 72 h exposure, as previously described. Each compound was tested at concentrations ranging from 12.5 to 100 μg/mL. Untreated cells were considered as controls. The percentage of viable cells was calculated as follows: % Cell viability = 100 × treated well absorbance/untreated control well absorbance. All assays were performed once in technical quadruplicate.

[8] = MTT cytotoxicity assay on MCF7; assay type: cell-based; settings: human, MCF7 cells; for viability at 72 h, 12.5 µg/mL: MCF7, 12.5 μg/mL; for viability at 72 h, 12.5 µg/mL / viability at 72 h, 25 µg/mL / viability at 72 h, 50 µg/mL / viability at 72 h, 100 µg/mL: read-out: Cytotoxicity (% cell viability); for viability at 72 h, 25 µg/mL: MCF7, 25 μg/mL; for viability at 72 h, 50 µg/mL: MCF7, 50 μg/mL; for viability at 72 h, 100 µg/mL: MCF7, 100 μg/mL; for CC50 at 72 h: MCF7, MTT
Protocol: as §3

| SMILES | inhibition at 50 µM [1] [%] | MIC [3] [µg/mL] | CPX MIC ([4]; EPI at 0.2 µg/mL) [µg/mL] | N° CPX MIC reduction ([4]; EPI at 0.2 µg/mL) | CPX MIC ([4]; EPI at 0.4 µg/mL) [µg/mL] | N° CPX MIC reduction ([4]; EPI at 0.4 µg/mL) | CPX MIC ([4]; EPI at 0.8 µg/mL) [µg/mL] | N° CPX MIC reduction ([4]; EPI at 0.8 µg/mL) | CPX MIC ([4]; EPI at 1.6 µg/mL) [µg/mL] | N° CPX MIC reduction ([4]; EPI at 1.6 µg/mL) | CPX MIC ([4]; EPI at 3.13 µg/mL) [µg/mL] | N° CPX MIC reduction ([4]; EPI at 3.13 µg/mL) | MIC [5] [µg/mL] | Biofilm formation (%) [6] | reduction in biofilm formation [6] [%] | viability at 72 h, 12.5 µg/mL [7] [%] | viability at 72 h, 25 µg/mL [7] [%] | viability at 72 h, 50 µg/mL [7] [%] | viability at 72 h, 100 µg/mL [7] [%] | viability at 72 h, 12.5 µg/mL [8] [%] | other results |
| --- | --- | --- | --- | --- | --- | --- | --- | --- | --- | --- | --- | --- | --- | --- | --- | --- | --- | --- | --- | --- | --- |
| O=S1(=O)Nc2c(-c3ccc(Cl)cc3)nn(-c3ccccc3)c2-c2ccccc21 [Compound 3] | 7 | > 50 | 0.08 | 2 | 0.08 | 2 | 0.08 | 2 | 0.08 | 2 | 0.08 | 2 | 25 (≈ 61.3 µM) | positive synergistic effect | 83 | 94 ± 24 | 99 ± 20 | 101 ± 24 | 34 ± 10 | 97 ± 10 | N° fold CPX MIC reduction ([2]; EPI at 3.12 µg/mL): 2 fold; CPX MIC ([4]; EPI at 6.25 µg/mL): 0.08 µg/mL; N° CPX MIC reduction ([4]; EPI at 6.25 µg/mL): 2; CPX MIC ([4]; EPI at 12.5 µg/mL): 0.08 µg/mL; N° CPX MIC reduction ([4]; EPI at 12.5 µg/mL): 2; viability at 72 h, 25 µg/mL [8]: 84 ± 4%; viability at 72 h, 50 µg/mL [8]: 88 ± 4%; viability at 72 h, 100 µg/mL [8]: 66 ± 7%; CC50 at 72 h [8]: > 100 µg/mL |
| CN1c2c(-c3ccc(Cl)cc3)n[nH]c2-c2ccccc2S1(=O)=O [Compound 10, 3‐(4‐Chlorophenyl)‐4‐methyl‐1,4‐dihydropyrazolo[4,3‐c][1,2]benzothiazine 5,5‐dioxide] | 100 | 12.5 (≈ 36.1 µM) | 0.08 | 2 | 0.08 | 2 | 0.08 | 2 | 0.08 | 2 | 0.08 | 2 | 12.5 (≈ 36.1 µM) | untreated control‐like condition | 54 | 97 ± 2 | 45 ± 3 | 7 | 7 ± 2 | 66 ± 5 | inhibition at 10 µM ([1]; read-out: EtBr efflux inhibition (%), compound at 10 µM, SA-1199B): 95%; N° fold CPX MIC reduction ([2]; EPI at 12.5 µg/mL): 4 fold; CC50 at 72 h ([7]; A549, MTT): ~25 µg/mL (≈ 72.3 µM); viability at 72 h, 25 µg/mL [8]: 26 ± 2%; viability at 72 h, 50 µg/mL [8]: 7 ± 1%; viability at 72 h, 100 µg/mL [8]: 6%; CC50 at 72 h [8]: ~25 µg/mL (≈ 72.3 µM) |
